Results: publication PMC9848351, “Discovery of new pyridine-quinoline hybrids as competitive and non-competitive PIM-1 kinase inhibitors with apoptosis induction and caspase 3/7 activation capabilities” (Journal of Enzyme Inhibition and Medicinal Chemistry, 2023)

How the values were obtained:
Caco-2 = test: Flow cytometric annexin V/PI analysis of apoptosis, Caco-2; type: cell-based; conditions: IC50 of compound, 72 h, mean ± SEM
Procedure: The apoptosis-dependent […] was determined by quantification of annexin-stained apoptotic cells using the FITC signal detector (FL1) against the phycoerythrin emission signal detector (FL2) (Supplementary Page S55). […]
MTT method was used for assaying cell viability 25. Twenty microliters of 5 mg/ml MTT (Sigma, USA) was added to each well and the plate was incubated at 37 °C for 3 h. Then MTT solution was removed, 100 µl DMSO was used and the absorbance of each well was measured with a microplate reader ( BMG LabTech, […]
Germany) at 570 nm. […]
Graphpad Instat software.
Determination of the anticancer activity
Anticancer effect of the above-mentioned compounds was evaluated using four human […]
cancer cell lines. […]
All cancer cells (5x10^3 cells/well) were seeded in sterile
96-well plates. After 24h, serial concentrations of the tested compounds and Dox were incubated with four cancer cell lines for 72 h at 37 °C in 5% CO2 incubator. MTT method was done as described above. The Graphpad Instat software was used for calculating the half maximal inhibitory concentration (IC50) values. […]
Flow cytometric analysis of apoptosis
Caco-2, PC-3 and NFS-60 cell lines. After trypsinization, the untreated and treated cells were incubated with annexin V/PI for 15 min. Then cells were fixed and incubated with streptavidin-fluorescein (5 µg/mL) for 15 min. The apoptosis-dependent anticancer effect was determined by quantification of annexin-stained apoptotic cells using the FITC signal detector (FL1) against the phycoerythrin emission signal detector (FL2). […]

[1] = test system: liver cancer cell line (HepG-2); test: MTT anticancer activity, HepG-2; type: cell-based, human; conditions: for IC50: Homo sapiens, HepG2, HepG-2, 72 h, MTT, mean ± SEM; for activity against HepG-2 compared to the reference: fold versus doxorubicin IC50
How it was run: (§1)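 Cells seeded at 5x10^3/well (Caco-2 in DMEM, others in RPMI-1640, 10% FBS) and exposed to serial compound concentrations for 72 h at 37 °C, 5% CO2, starting 24 h after seeding. MTT (3 h, 37 °C) read at 570 nm after DMSO solubilisation; IC50 calculated from viability.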

[2] = test system: normal human lung fibroblast Wi-38 cell line; test: MTT cytotoxicity on normal cells; type: cell-based; conditions: for EC50 / IC50: Homo sapiens; for EC50 / Wi-38 EC100: Wi-38, 72 h, MTT, mean ± SEM; for EC50: 50% cell viability; for Wi-38 EC100: safe dose, 100% cell viability; for IC50: Wi-38, MTT, read-out: IC50 on human lung fibroblasts (Wi-38)
How it was run: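 Wi-38 fibroblasts in DMEM with 10% FBS were seeded at 5x10^3 cells/well, left 24 h to attach, then exposed to serial compound concentrations for 72 h at 37 °C, 5% CO2. MTT was added for 3 h, formazan dissolved in DMSO and absorbance read at 570 nm. IC50 and EC100 (safe dose) were estimated from the concentration series.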

PIM-1 kinase [3] = target: T1, PIM-1 kinase (Homo sapiens, UniProt P11309); test: Mechanism of PIM-1 kinase inhibition, Lineweaver–Burk double-reciprocal plot; type: biochemical; set-up: purchased Promega Corporation #V4032; conditions: for Vmax compared with control: Y-intercept
T1 sequence (P11309 whole entry): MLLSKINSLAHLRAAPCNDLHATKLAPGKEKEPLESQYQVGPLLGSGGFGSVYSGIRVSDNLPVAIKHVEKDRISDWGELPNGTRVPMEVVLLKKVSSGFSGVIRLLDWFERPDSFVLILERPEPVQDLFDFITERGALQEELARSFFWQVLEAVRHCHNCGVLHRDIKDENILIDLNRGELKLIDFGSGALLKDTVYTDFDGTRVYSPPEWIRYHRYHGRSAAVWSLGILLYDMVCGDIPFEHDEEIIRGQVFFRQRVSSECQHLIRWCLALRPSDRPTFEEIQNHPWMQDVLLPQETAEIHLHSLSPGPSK

HepG-2 = test: Flow cytometric annexin V/PI analysis of apoptosis, HepG-2; type: cell-based, human; conditions: IC50 of compound, 72 h, mean ± SEM
[4] = test system: myeloid leukaemia cell line (NFS-60); test: MTT anticancer activity, NFS-60; type: cell-based; conditions: for IC50: NFS-60, 72 h, MTT, mean ± SEM; for activity against NFS-60 compared to the reference: fold versus doxorubicin IC50
How it was run: as §1

PIM-1 kinase [5] = target: T1, PIM-1 kinase; test: PIM-1 kinase inhibitory activity (Promega kinase assay kit)
Excerpt: PIM-1 and PIM-2 kinase inhibitory activity
PIM-1 and PIM-2 kinase utilizing PIM-1 and PIM-2 Kinase Assay Kit – Promega Corporation catalog #V4032, following the manufacturer’s instructions 26

| IC50 [1] | mechanism of PIM-1 kinase inhibition (PIM-1 kinase [3]) | Vmax compared with control (PIM-1 kinase [3]) | IC50 [4] | IC50 (PIM-1 kinase [5]) | Structure (SMILES) | total percentage of the apoptotic cell population, Caco-2 (Caco-2) | EC50 [2] | Wi-38 EC100 [2] | total percentage of the apoptotic cell population, HepG-2 (HepG-2) | activity against HepG-2 compared to the reference [1] | activity against NFS-60 compared to the reference [4] | IC50 [2] |
| --- | --- | --- | --- | --- | --- | --- | --- | --- | --- | --- | --- | --- |
| 12.7 nM | competitive inhibitors | the same Vmax in comparison with control | 23.2 nM | 385 nM | N#Cc1c(-c2cc3ccccc3[nH]c2=O)cc(-c2cccc(O)c2)nc1S [14a, 6-(3-Hydroxyphenyl)-2-mercapto-4-(2-oxo-1,2-dihydroquinolin-3-yl)pyridine-3-carbonitrile] | 42.17 ± 0.82% | 299 ± 4 nM | 0.134 ± 0.003 µM | 42.155 ± 0.16% |  |  |  |
| 3.77 ± 0.1 nM |  |  | 8.8 ± 0.1 nM | 7780 nM | COc1ccc2[nH]c(=O)c(-c3cc(-c4cccc(O)c4)[nH]c(=O)c3C#N)cc2c1 [13c, 6-(3-Hydroxyphenyl)-4-(6-methoxy-2-oxo-1,2-dihydroquinolin-3-yl)-2-oxo-1,2-dihydropyridine-3-carbonitrile] | 51.17 ± 0.33% | 34.8 ± 3 nM | 0.0242 ± 0.001 µM | 66.83 ± 1.32% | thirteen-fold high | three-fold high |  |
| 5.28 ± 0.1 nM | competitive inhibitors | the same Vmax in comparison with control | 9.32 ± 4 nM |  | N#Cc1c(-c2cc3cc(Cl)ccc3nc2N2CCOCC2)cc(-c2cccc(O)c2)[nH]c1=O [5b, 4-(6-Chloro-2-morpholin-4-yl-quinolin-3-yl)-6-(3-hydroxyphenyl)-2-oxo-1,2-dihydropyridine-3-carbonitrile] | 44.045 ± 0.185% | 171 ± 2 nM | 0.048 ± 0.0001 µM | 58.9 ± 0.88% |  |  | > 99 nM |
| 7.6 ± 0.1 nM | competitive inhibitors | the same Vmax in comparison with control | 18.1 ± 1 nM |  | COc1ccc2nc(N3CCOCC3)c(-c3cc(-c4cccc(O)c4)[nH]c(=O)c3C#N)cc2c1 [5c, 6-(3-Hydroxyphenyl)-4-(6-methoxy-2-morpholin-4-yl-quinolin-3-yl)-2-oxo-1,2-dihydropyridine-3-carbonitrile] | 33.89 ± 0.175% | 717 ± 2 nM | 0.361 ± 0.014 µM | 54.14 ± 0.42% |  |  | > 99 nM |

| Structure (SMILES) | IC50 [1] | mechanism of PIM-1 kinase inhibition (PIM-1 kinase [3]) | Vmax compared with control (PIM-1 kinase [3]) | IC50 [4] | IC50 (PIM-1 kinase [5]) | total percentage of the apoptotic cell population, Caco-2 (Caco-2) | EC50 [2] | Wi-38 EC100 [2] | total percentage of the apoptotic cell population, HepG-2 (HepG-2) | activity against HepG-2 compared to the reference [1] | activity against NFS-60 compared to the reference [4] | IC50 [2] |
| --- | --- | --- | --- | --- | --- | --- | --- | --- | --- | --- | --- | --- |
| N#Cc1c(-c2cc3ccccc3[nH]c2=O)cc(-c2cccc(O)c2)[nH]c1=O [13a, 6-(3-Hydroxyphenyl)-2-oxo-4-(2-oxo-1,2-dihydroquinolin-3-yl)-1,2-dihydropyridine-3-carbonitrile] | 2.38 nM | both competitive and non-competitive inhibitor | reduced in Vmax value | 9 nM | 1270 nM | 58.28 ± 0.26% | 25.5 ± 4 nM | 0.0145 ± 0.0001 µM | 70.59 ± 1.07% | twenty-one-fold more active | three-fold |  |
